Patent publication US20040077674A1, “Mappicine analogs, intermediates in the synthesis of mappicine analogs and methods of synthesis of mappicine analogs” (priority 2002, published 2004)

Experiments:
[1] = target: T1, RNase H activity of HIV reverse transcriptase (Human immunodeficiency virus type 1 group M subtype B, UniProt P03366); test: Fluorescence (FRET)-based RNase H assay of HIV reverse transcriptase; type: biochemical, HIV-1; details: for Residual activity (%) RNase H: 10 μM inhibitor concentration, activity in presence / in absence of analog x 100; for % inhibition of RNase H at 20 μM: 20 μM inhibitor concentration
T1 construct: 2.5 nM of the p51/p66 RT heterodimer in the assay; made in house
Procedure: Recently, a fluorescence-based assay to perform screens in search of HIV RNase H inhibitors has been developed. The assay, which is carried out in 96-well microplates and is adaptable to robotics, is the first high-throughput screen for RNase H and is described in further detail in the Experimental section. HIV-1 RT and human RNase H were cloned, and thus comparative analysis of inhibitor action could be conducted simultaneously.
The assay for RNase H activity of HIV reverse transcriptase was the fluorescence-based assay described in detail in the Experimental section and discussed in U.S. Provisional Patent Application Serial No. 60/318,359. Assays were carried out in the absence and in the presence of mappicine analogs (10 μM or 20 μM final concentration). The results are reported as % residual activity, which is the RNase H activity of the enzyme in the presence of the mappicine analog divided by the RNase H activity of the enzyme in the absence of the mappicine analog, multiplied by 100. Alternatively, the results are reported as % inhibition, which is calculated as the ratio of the RNase H activity of the enzyme in the presence of the mappicine analog to the enzyme activity in the absence of the mappicine analog, multiplied by 100, and then subtracting this number from 100.
Assay for Ribonuclease H Activity Based on Fluorescence Resonance Energy Transfer (FRET)
Preparation of the Fluorophore-RNA/Quencher-DNA Hybrid Duplex Substrate.
The RNA/DNA hybrid duplex substrate for use in the assay comprises an RNA oligonucleotide of sequence 5′-GAU CUG AGC CUG GGA GCU-3′, modified at the 3′-end with Aminolink-2 and derivatized with fluorescein isothiocyanate, to provide a modified RNA oligonucleotide of the sequence 5′-GAU CUG AGC CUG GGA GCU-fluorescein-3′, annealed to a complementary DNA oligonucleotide of the sequence 5′-AGC TCC CAG GCT CAG ATC-3′ modified at the 5′-end with Aminolink-2 and derivatized with the FRET acceptor DABCYL succinimidyl ester, to provide a modified DNA oligonucleotide of the sequence 5′-DABCYL-AGC TCC CAG GCT CAG ATC-3′.
To prepare the 3′-fluorescein-RNA/5′-DABCYL-DNA hybrid duplex substrate, a known amount of 3′-fluorescein-RNA was dissolved in 20 mM Tris buffer (pH 8.0, 37° C.) to provide a final concentration of 5 μM. Two equivalents of the 5′-DABCYL-DNA oligonucleotide were added, and the mixture was heated to 90° C. for 5 min and cooled slowly to room temperature to allow duplex formation. The positioning of the fluorescein donor at the 3′-end of the RNA oligonucleotide and the DABCYL acceptor at the 5′-end of the DNA oligonucleotide provides a very close proximity of the donor and acceptor that results in a very intense quenching of the fluorescein emission in the intact RNA/DNA hybrid duplex substrate due to the spectral overlap of the fluorescence emission of fluorescein with the absorption spectrum of DABCYL. In addition, DABCYL is non-fluorescent, and thus cannot contribute any light emission. Both of these factors result in a very low background and provide a high signal-to-noise in the assay measurements. The ratio of the donor fluorescence in the absence and in the presence of its quencher is approximately fifteen-fold.
Microplate Assay Protocol for the Measurement of RNase H Activity Using the RNA/IDNA Hybrid Duplex Substrate.
Reaction assay mixtures contained 5 μl of a stock solution of 2.5 μM RNA/DNA hybrid duplex substrate added to 85 μl of assay buffer (50 mM Tris, pH 8.0, 37° C., containing 60 mM KCl and 2.5 mM MgCl2), prepared in the wells of a 96-well fluorescence microtiter plate, and warmed to 37° C. using the temperature control of the SpectraMax Gemini XS microplate spectrofluorometer (Molecular Devices). Reactions were started by the addition of 5 μl of a solution of recombinant HIV-1 reverse transcriptase (usually providing a final concentration of 2.5 nM of the p51/p66 RT heterodimer in the assay), and mixing using the automatic mixing function of the microplate spectrofluorometer. […]

[2] = target: T2, RNA-dependent DNA polymerase activity of HIV reverse transcriptase (Human immunodeficiency virus type 1 group M subtype B, UniProt P03366); test: RNA-dependent DNA polymerase activity assay of HIV reverse transcriptase; type: biochemical, HIV-1; details: 10 μM inhibitor concentration; activity in presence / in absence of analog x 100
T2 construct: made in house
Procedure: In separate representative assays, mappicine analogs were tested for their ability to inhibit the RNA-dependent DNA polymerase activity of HIV reverse transcriptase and for their ability to inhibit the RNase H activity of HIV reverse transcriptase. The assay for RNA-dependent DNA polymerase activity is discussed in Borkow, G. et al., “Inhibition of the Ribonuclease H and DNA Polymerase Activities of HIV-1 Reverse Transcriptase by N-(4-tert-Butylbenzoyl)-2-hydroxy-1-naphthaldehyde Hydrazone,” Biochemistry 1997, 36, 3179-3185, a copy of which is attached hereto and the disclosure of which is incorporated herein by reference. Assays were carried out in the absence and in the presence of mappicine analogs (10 μM final concentration). The results are reported as % residual activity, which is the RNA-dependent DNA polymerase activity of the enzyme in the presence of the mappicine analog divided by the RNA-dependent activity of the enzyme in the absence of the mappicine analog, multiplied by 100.

| Molecule | Residual activity (%) RNase H [1] [%] | Residual activity (%) Polymerase [2] [%] | % inhibition of RNase H at 20 μM [1] [%] |
| --- | --- | --- | --- |
| 2-Acetoxy-12-ethyl-7-(1-hydroxypropyl)-8-methyl-1H-indolizino [1,2-b]quinolin-9-one [5 (AG 7M)] | 63 | 99 | – |
| CCC(O)c1cc2n(c(=O)c1C)Cc1c-2nc2ccccc2c1-c1ccccc1 (stereo not drawn) [5 (3Aα)] | 97 | 90 | – |
| CCC(=O)c1cc2n(c(=O)c1C)Cc1c-2nc2ccccc2c1-c1ccccc1 [5 (3Aακ)] | 87 | 64 | – |
| Cc1c(C(O)C(C)(C)C)cc2n(c1=O)Cc1c-2nc2ccccc2c1-c1ccccc1 (stereo not drawn) [5 (3Aβ)] | 95 | 54 | – |
| Cc1c(C(=O)C(C)(C)C)cc2n(c1=O)Cc1c-2nc2ccccc2c1-c1ccccc1 [5 (3Aβκ)] | 94 | 64 | – |
| Cc1c(C(O)CCC2CCCCC2)cc2n(c1=O)Cc1c-2nc2ccccc2c1-c1ccccc1 (stereo not drawn) [5 (3Aδ)] | 104 | 32 | – |
| Cc1c(C(=O)CCC2CCCCC2)cc2n(c1=O)Cc1c-2nc2ccccc2c1-c1ccccc1 [5 (3Aδκ)] | 73 | 66 | – |
| Cc1c(C(O)Cc2ccccc2)cc2n(c1=O)Cc1c-2nc2ccccc2c1-c1ccccc1 (stereo not drawn) [5 (3Aε)] | 99 | 34 | – |
| CCC(O)c1cc2n(c(=O)c1C)Cc1c-2nc2ccc(F)cc2c1-c1ccccc1 (stereo not drawn) [5 (3Bα)] | 83 | 54 | – |
| CCC(=O)c1cc2n(c(=O)c1C)Cc1c-2nc2ccc(F)cc2c1-c1ccccc1 [5 (3Bακ)] | 94 | 100 | – |
| Cc1c(C(O)C(C)(C)C)cc2n(c1=O)Cc1c-2nc2ccc(F)cc2c1-c1ccccc1 (stereo not drawn) [5 (3Bβ)] | 75 | 78 | – |
| Cc1c(C(=O)C(C)(C)C)cc2n(c1=O)Cc1c-2nc2ccc(F)cc2c1-c1ccccc1 [5 (3Bβκ)] | 95 | 61 | – |
| Cc1c(C(O)CCC2CCCCC2)cc2n(c1=O)Cc1c-2nc2ccc(F)cc2c1-c1ccccc1 (stereo not drawn) [5 (3Bδ)] | 99 | 81 | – |
| Cc1c(C(=O)CCC2CCCCC2)cc2n(c1=O)Cc1c-2nc2ccc(F)cc2c1-c1ccccc1 [5 (3Bδκ)] | 93 | 59 | – |
| Cc1c(C(O)Cc2ccccc2)cc2n(c1=O)Cc1c-2nc2ccc(F)cc2c1-c1ccccc1 (stereo not drawn) [5 (3Bε)] | 91 | 28 | – |
| CCC(O)c1cc2n(c(=O)c1C)Cc1c-2nc2ccc(C)cc2c1-c1ccccc1 (stereo not drawn) [5 (3Cα)] | 96 | 64 | – |
| CCC(=O)c1cc2n(c(=O)c1C)Cc1c-2nc2ccc(C)cc2c1-c1ccccc1 [5 (3Cακ)] | 99 | 71 | – |
| Cc1ccc2nc3c(c(-c4ccccc4)c2c1)Cn1c-3cc(C(=O)C(C)(C)C)c(C)c1=O [5 (3Cβκ)] | 96 | 63 | – |
| Cc1ccc2nc3c(c(-c4ccccc4)c2c1)Cn1c-3cc(C(=O)CCC2CCCCC2)c(C)c1=O [5 (3Cδκ)] | 93 | 65 | – |
| CCCCCc1c2c(nc3ccc(C(F)(F)F)cc13)-c1cc(C(O)CCC3CCCCC3)c(C)c(=O)n1C2 (stereo not drawn) [Compound 7.7.4] | – | – | 75 |
| CCc1ccc2nc3c(c(-c4ccccc4)c2c1)Cn1c-3cc(C(O)CCC2CCCCC2)c(C)c1=O (stereo not drawn) [Compound 7.8.5] | – | – | 65 |
| Cc1c(C(O)CCC2CCCCC2)cc2n(c1=O)Cc1c-2nc2ccc(Cl)cc2c1-c1ccccc1 (stereo not drawn) [Compound 7.8.6] | – | – | 90 |
| Cc1ccc2nc3c(c(-c4ccccc4)c2c1)Cn1c-3cc(C(O)CCC2CCCCC2)c(C)c1=O (stereo not drawn) [Compound 7.8.9] | – | – | 61 |
